Patent publication US20260285850A1, “SUBSTITUTED OXAZOLIDINONES AND IMIDAZOLINONES AS HERBICIDES” (FMC CORPORATION, priority 2023, published 2026)

Experiments:
Type in all cases: in vivo
[1] = test system: oat, wild (wild oat, Avena fatua); assay: Test A postemergence application, visual injury rating 0-100; settings: 10 days
Source text: (§1) Seeds of plant species selected from barnyardgrass (Echinochloa crus-galli), blackgrass (Alopecurus myosuroides), corn (Zea mays), foxtail, giant (giant foxtail, Setaria faberi), green foxtail (Setaria viridis), goosegrass (Eleusine indica), kochia (Bassia scoparia), oat, wild (wild oat, Avena fatua), palmer (palmer amaranth, palmer pigweed, Amaranthus palmeri), ragweed (common ragweed, Ambrosia artemisiifolia), ryegrass, Italian (italian ryegrass, Lolium multiflorum), soybean (Glycine max) and wheat (Triticum aestivum) were planted into a blend of loam soil and sand and treated preemergence with a directed soil spray using test chemicals formulated in a non-phytotoxic solvent mixture which included a surfactant.
(§2) At the same time, plants selected from these crops and weed species and also galium (catchweed bedstraw, Galium aparine) and horseweed (Erigeron canadensis) were planted in pots containing the same blend of loam soil and sand and treated with postemergence applications of test chemicals formulated in the same manner. Plants ranged in height from 2 to 10 cm and were in the one- to two-leaf stage for the postemergence treatment. Treated plants and untreated controls were maintained in a greenhouse for 10 days, after which time all treated plants were compared to untreated controls and visually evaluated for injury. Plant response ratings, summarized in Table A, are based on a 0 to 100 scale where 0 is no effect and 100 is complete control. A dash (-) response means no test result.

[2] = test system: ryegrass, Italian (italian ryegrass, Lolium multiflorum); assay: as above; settings: 10 days
Source text: as §1, §2

[3] = test system: wheat (Triticum aestivum); assay: as above; settings: 10 days
Source text: as §1, §2

[4] = test system: horseweed (Erigeron canadensis); assay: as above; settings: 10 days
Source text: as §1, §2

[5] = test system: green foxtail (Setaria viridis); assay: as above; settings: 10 days
Source text: as §1, §2

[6] = test system: ragweed (common ragweed, Ambrosia artemisiifolia); assay: as above; settings: 10 days
Source text: as §1, §2

[7] = test system: palmer (palmer amaranth, palmer pigweed, Amaranthus palmeri); assay: as above; settings: 10 days
Source text: as §1, §2

corn (Zea mays) [8] = assay: as above; settings: 10 days
Source text: as §1, §2

[9] = test system: barnyardgrass (Echinochloa crus-galli); assay: as above; settings: 10 days
Source text: as §1, §2

soybean (Glycine max) [10] = assay: as above; settings: 10 days
Source text: as §1, §2

[11] = test system: blackgrass (Alopecurus myosuroides); assay: as above; settings: 10 days
Source text: as §1, §2

kochia (Bassia scoparia) [12] = assay: as above; settings: 10 days
Source text: as §1, §2

[13] = test system: oat, wild (wild oat, Avena fatua); assay: Test A preemergence soil spray, visual injury rating 0-100; settings: 10 days, 0 = no effect, 100 = complete control
Source text: as §1, §2

[14] = test system: ryegrass, Italian (italian ryegrass, Lolium multiflorum); assay: as above; settings: 10 days, 0 = no effect, 100 = complete control
Source text: as §1, §2

[15] = test system: wheat (Triticum aestivum); assay: as above; settings: 10 days, 0 = no effect, 100 = complete control
Source text: as §1, §2

[16] = test system: green foxtail (Setaria viridis); assay: as above; settings: 10 days, 0 = no effect, 100 = complete control
Source text: as §1, §2

[17] = test system: ragweed (common ragweed, Ambrosia artemisiifolia); assay: as above; settings: 10 days, 0 = no effect, 100 = complete control
Source text: as §1, §2

[18] = test system: palmer (palmer amaranth, palmer pigweed, Amaranthus palmeri); assay: as above; settings: 10 days, 0 = no effect, 100 = complete control
Source text: as §1, §2

corn (Zea mays) [19] = assay: as above; settings: 10 days, 0 = no effect, 100 = complete control
Source text: as §1, §2

[20] = test system: barnyardgrass (Echinochloa crus-galli); assay: as above; settings: 10 days, 0 = no effect, 100 = complete control
Source text: as §1, §2

soybean (Glycine max) [21] = assay: as above; settings: 10 days, 0 = no effect, 100 = complete control
Source text: as §1, §2

[22] = test system: blackgrass (Alopecurus myosuroides); assay: as above; settings: 10 days, 0 = no effect, 100 = complete control
Source text: as §1, §2

kochia (Bassia scoparia) [23] = assay: as above; settings: 10 days, 0 = no effect, 100 = complete control
Source text: as §1, §2

[24] = 31 g ai/ha, postemergence, 0 = no effect, 100 = complete control
[25] = Postemergence, 125 g ai/ha, 0 is no effect, 100 is complete control

**Q.** What does the source list for `CONC(=O)C1CC(NC(=O)C2(C)CN(c3cc(F)cc(F)c3)C(=O)O2)CO1` (stereo not shown) [Compound 40]?
**A.** Oat, Wild plant response rating (0-100) [1, 24]: 90; Oat, Wild plant response rating (0 to 100 scale) [1, 25]: 90; Ryegrass, Italian plant response rating (0-100) [2, 24]: 20; Ryegrass, Italian plant response rating (0 to 100 scale) [2, 25]: 60; Wheat plant response rating (0-100) [3, 24]: 70; Wheat plant response rating (0 to 100 scale) [3, 25]: 80; Horseweed plant response rating (0-100) [4, 24]: 30; Horseweed plant response rating (0 to 100 scale) [4, 25]: 0; Foxtail, Green plant response rating (0-100) [5, 24]: 0; Foxtail, Green plant response rating (0 to 100 scale) [5, 25]: 90; Ragweed plant response rating (0-100) [6, 24]: 0; Ragweed plant response rating (0 to 100 scale) [6, 25]: 20; Amaranth, Palmer plant response rating (0-100) [7, 24]: 0; Amaranth, Palmer / Pigweed, Palmer plant response rating (0 to 100 scale) [7, 25]: 30; Corn plant response rating (0-100) (corn (Zea mays) [8]; [24]): 20; Corn plant response rating (0 to 100 scale) (corn (Zea mays) [8]; [25]): 100; Barnyardgrass plant response rating (0-100) [9, 24]: 10; Barnyardgrass plant response rating (0 to 100 scale) [9, 25]: 100; Soybean plant response rating (0-100) (soybean (Glycine max) [10]; [24]): 0; Soybean plant response rating (0 to 100 scale) (soybean (Glycine max) [10]; [25]): 60; Blackgrass plant response rating (0-100) [11, 24]: 100; Blackgrass plant response rating (0 to 100 scale) [11, 25]: 100; Kochia plant response rating (0-100) (kochia (Bassia scoparia) [12]; [24]): 0; Kochia plant response rating (0 to 100 scale) (kochia (Bassia scoparia) [12]; [25]): 70; Oat, Wild plant response rating (0-100) ([13]; 31 g ai/ha): 50; Oat, Wild plant response rating (0 to 100 scale) ([13]; 125 g ai/ha): 90; Ryegrass, Italian plant response rating (0-100) ([14]; 31 g ai/ha): 20; Ryegrass, Italian plant response rating (0 to 100 scale) ([14]; 125 g ai/ha): 90; Wheat plant response rating (0-100) ([15]; 31 g ai/ha): 50; Wheat plant response rating (0 to 100 scale) ([15]; 125 g ai/ha): 90; Foxtail, Green plant response rating (0-100) ([16]; 31 g ai/ha): 0; Foxtail, Green plant response rating (0 to 100 scale) ([16]; 125 g ai/ha): 20; Ragweed plant response rating (0-100) ([17]; 31 g ai/ha): 0; Ragweed plant response rating (0 to 100 scale) ([17]; 125 g ai/ha): 0; Amaranth, Palmer plant response rating (0-100) ([18]; 31 g ai/ha): 0; Amaranth, Palmer plant response rating (0 to 100 scale) ([18]; 125 g ai/ha): 0; Corn plant response rating (0-100) (corn (Zea mays) [19]; 31 g ai/ha): 0; Corn plant response rating (0 to 100 scale) (corn (Zea mays) [19]; 125 g ai/ha): 0; Barnyardgrass plant response rating (0-100) ([20]; 31 g ai/ha): 0; Barnyardgrass plant response rating (0 to 100 scale) ([20]; 125 g ai/ha): 30; Soybean plant response rating (0-100) (soybean (Glycine max) [21]; 31 g ai/ha): 0; Soybean plant response rating (0 to 100 scale) (soybean (Glycine max) [21]; 125 g ai/ha): 10; Blackgrass plant response rating (0-100) ([22]; 31 g ai/ha): 50; Blackgrass plant response rating (0 to 100 scale) ([22]; 125 g ai/ha): 80; Kochia plant response rating (0-100) (kochia (Bassia scoparia) [23]; 31 g ai/ha): 0; Kochia plant response rating (0 to 100 scale) (kochia (Bassia scoparia) [23]; 125 g ai/ha): 0
